Tested on: Arabidopsis thaliana Ler x transgenic WS (AtLTP1::AtSERK1) F1 plants
Assay: SSLP analysis of F2 progeny for apomictic plants after 2,4-D application to F1 flower buds
Format: in vivo
Conditions: flower buds dipped in 2 μM 2,4-D 1 to 2 days pre-anthesis, repeated twice
Description: Transgenic T3 Arabidopsis thaliana ecotype WS plants, i.e. transgenic plants in the third generation after transformation, that are homozygous for the AtLTP1::AtSERK1 construct are used as male donor to pollinate Arabidopsis thaliana ecotype Landsberg erecta (L r) plants. The flower buds of the F1 plants at stage 11 to 12 (Smyth et al., The Plant Cell 2: 755, 1990) approximately 1 to 2 days pre-anthesis are dipped in an aqueous solution containing 2 μM 2,4-D supplemented with 0.04% (v/v) Triton X-100 as a surfactant as described by Vivian-Smith et al., (Plant Physiol. 121: 437, 1999). The treatment is repeated twice in a two-day period and plants are left to set F2 seeds. In parallel a control cross between wild-type Ler female and wild-type WS male plant is made to obtain F1 plants. Those F1 plants are designated as wild-type F1 plants and they are analysed in the same way as the transgenic F1 plants except that they are not auxin treated.
The F2 seeds are grown into seedlings and a few rosette leaves from each plant are used for DNA extraction as described by Ponce et al., Mol. Gen. Genet. 261: 408, 1999. Simple Sequence Length Polymorphism (SSLP) analysis is carried out by simultaneous amplification of 11 SSLP markers (see Table 1) using multiplex PCR with fluorescently labeled primers as described by Ponce et al. supra. […]

With O=C(O)COc1ccc(Cl)cc1Cl [2, 4 D, 2,4-dichlorophenoxyacetic acid] the “Plants h t rozygous for 11 SSLP markers Observed” value (AtLTP::AtSERK1 cross No 14 (line with lower SERK1 level), 144 F2 plants analyzed) was 0 and the “Plants h t rozygous for 11 SSLP markers Observed” value (AtLTP::AtSERK1 cross No 15, 175 F2 plants analyzed) was 2.

Reference: US20040103452A1, “Inducible apomixis” (priority 2001, published 2004)
